In US5294611A, “Angiotensin II receptor blocking 2,3,6 substituted quinazolinones” (American Cyanamid Company, priority 1993, dated 1994):
Where two headings read alike, the source gives them in different places.

Test system: Angiotensin II (AII) vasopressor response
Assay: AII Challenge: antagonism of angiotensin II vasopressor response in conscious spontaneously hypertensive rats
Assay type: in vivo, rat (male okamoto-Aoki SHR)
Settings: for inhibition in vivo at 3 mg/kg: Rattus norvegicus, read-out: Inhibition; for inhibition in vivo at 3 mg/kg / Average Change: SHR n=2; for Change: single SHR
In short: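 Read-out is the systolic pressure increase (mmHg) to i.v. angiotensin II, 0.05 and 0.1 ug/kg, compared pre- and post-dose in restrained, conscious spontaneously hypertensive male rats. Compounds administered orally, i.p. or i.v.; arterial cannula inserted under local anaesthesia.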

[1] = 3 mg/kg I.V., AII 0.05 mcg/kg IV, 30 min post dose
[2] = 3 mg/kg I.V., AII 0.05 mcg/kg IV, 60 min post dose
[3] = 3 mg/kg I.V., AII 0.1 mcg/kg IV, 300 min post dose
[4] = 3 mg/kg P.O., AII 0.05 mcg/kg IV, 30 min post dose
[5] = 3 mg/kg P.O., AII 0.1 mcg/kg IV, 30 min post dose

Q: Which inhibition in vivo at 3 mg/kg (iv, 0.5 h, 3 mg/kg I.V., AII 0.05 mcg/kg IV, 30 min post dose) does the source give for `CCCCc1nc2ccc([C@H]3[C@@H]4C(=O)OC[C@@H]4ON3Cc3ccccc3)cc2c(=O)n1Cc1ccc(-c2ccccc2-c2nnn[nH]2)cc1` (relative stereo) [Example 57] here?
A: 100%

Q: What about the inhibition in vivo at 3 mg/kg (iv, 0.5 h, 3 mg/kg I.V., AII 0.1 mcg/kg IV, 30 min post dose) of the same compound?
A: 99%

Q: And the inhibition in vivo at 3 mg/kg (iv, 1 h, 3 mg/kg I.V., AII 0.05 mcg/kg IV, 60 min post dose)?
A: 100%

Q: What about the inhibition in vivo at 3 mg/kg (iv, 1 h, 3 mg/kg I.V., AII 0.1 mcg/kg IV, 60 min post dose) of the same compound?
A: 88%

Q: What about the inhibition in vivo at 3 mg/kg (iv, 2 h, 3 mg/kg I.V., AII 0.05 mcg/kg IV, 120 min post dose) of the same compound?
A: 90%

Q: And the inhibition in vivo at 3 mg/kg (iv, 2 h, 3 mg/kg I.V., AII 0.1 mcg/kg IV, 120 min post dose)?
A: 81%

Q: What about the inhibition in vivo at 3 mg/kg (iv, 3 h, 3 mg/kg I.V., AII 0.05 mcg/kg IV, 180 min post dose) of the same compound?
A: 61%

Q: And the inhibition in vivo at 3 mg/kg (iv, 3 h, 3 mg/kg I.V., AII 0.1 mcg/kg IV, 180 min post dose)?
A: 75%

Q: And the inhibition in vivo at 3 mg/kg (iv, 4 h, 3 mg/kg I.V., AII 0.05 mcg/kg IV, 240 min post dose)?
A: 77%

Q: What about the inhibition in vivo at 3 mg/kg (iv, 4 h, 3 mg/kg I.V., AII 0.1 mcg/kg IV, 240 min post dose) of the same compound?
A: 56%

Q: And the inhibition in vivo at 3 mg/kg (iv, 5 h, 3 mg/kg I.V., AII 0.05 mcg/kg IV, 300 min post dose)?
A: 71%

Q: And the inhibition in vivo at 3 mg/kg (iv, 5 h, 3 mg/kg I.V., AII 0.1 mcg/kg IV, 300 min post dose)?
A: 38%

Q: And the inhibition in vivo at 3 mg/kg (iv, […], 3 mg/kg I.V., AII 0.05 mcg/kg IV, 90 min post dose)?
A: 93%

Q: And the inhibition in vivo at 3 mg/kg (iv, […], 3 mg/kg I.V., AII 0.1 mcg/kg IV, 90 min post dose)?
A: 75%

Q: What about the inhibition in vivo at 3 mg/kg (po, 0.5 h, 3 mg/kg P.O., AII 0.05 mcg/kg IV, 30 min post dose) of the same compound?
A: 34%

Q: What about the inhibition in vivo at 3 mg/kg (po, 0.5 h, 3 mg/kg P.O., AII 0.1 mcg/kg IV, 30 min post dose) of the same compound?
A: 37%

Q: And the inhibition in vivo at 3 mg/kg (po, 1 h, 3 mg/kg P.O., AII 0.05 mcg/kg IV, 60 min post dose)?
A: 67%

Q: And the inhibition in vivo at 3 mg/kg (po, 1 h, 3 mg/kg P.O., AII 0.1 mcg/kg IV, 60 min post dose)?
A: 53%

Q: What about the inhibition in vivo at 3 mg/kg (po, 2 h, 3 mg/kg P.O., AII 0.05 mcg/kg IV, 120 min post dose) of the same compound?
A: 41%

Q: And the inhibition in vivo at 3 mg/kg (po, 2 h, 3 mg/kg P.O., AII 0.1 mcg/kg IV, 120 min post dose)?
A: 63%

Q: And the inhibition in vivo at 3 mg/kg (po, 3 h, 3 mg/kg P.O., AII 0.05 mcg/kg IV, 180 min post dose)?
A: 11%

Q: What about the inhibition in vivo at 3 mg/kg (po, 3 h, 3 mg/kg P.O., AII 0.1 mcg/kg IV, 180 min post dose) of the same compound?
A: 53%

Q: And the inhibition in vivo at 3 mg/kg (po, […], 3 mg/kg P.O., AII 0.05 mcg/kg IV, 90 min post dose)?
A: 47%

Q: What about the inhibition in vivo at 3 mg/kg (po, […], 3 mg/kg P.O., AII 0.1 mcg/kg IV, 90 min post dose) of the same compound?
A: 47%

Q: What about the “Average Change” value [1] of the same compound?
A: 0 mmHg

Q: What about the “Average Change” value [2] of the same compound?
A: 0 mmHg

Q: What about the “Average Change” value (3 mg/kg I.V., AII 0.05 mcg/kg IV, 90 min post dose) of the same compound?
A: 2.5 mmHg

Q: And the “Average Change” value (3 mg/kg I.V., AII 0.05 mcg/kg IV, 120 min post dose)?
A: 3.5 mmHg

Q: What about the “Average Change” value (3 mg/kg I.V., AII 0.05 mcg/kg IV, 180 min post dose) of the same compound?
A: 13.5 mmHg

Q: And the “Average Change” value (3 mg/kg I.V., AII 0.05 mcg/kg IV, 240 min post dose)?
A: 8 mmHg

Q: What about the “Average Change” value (3 mg/kg I.V., AII 0.05 mcg/kg IV, 300 min post dose) of the same compound?
A: 10 mmHg

Q: And the “Average Change” value (3 mg/kg I.V., AII 0.1 mcg/kg IV, 30 min post dose)?
A: 0.5 mmHg

Q: And the “Average Change” value (3 mg/kg I.V., AII 0.1 mcg/kg IV, 60 min post dose)?
A: 5 mmHg

Q: What about the “Average Change” value (3 mg/kg I.V., AII 0.1 mcg/kg IV, 90 min post dose) of the same compound?
A: 10 mmHg

Q: What about the “Average Change” value (3 mg/kg I.V., AII 0.1 mcg/kg IV, 120 min post dose) of the same compound?
A: 7.5 mmHg

Q: And the “Average Change” value (3 mg/kg I.V., AII 0.1 mcg/kg IV, 180 min post dose)?
A: 10 mmHg

Q: What about the “Average Change” value (3 mg/kg I.V., AII 0.1 mcg/kg IV, 240 min post dose) of the same compound?
A: 17.5 mmHg

Q: What about the “Average Change” value [3] of the same compound?
A: 25 mmHg

Q: And the “Average Change” value [4]?
A: 25 mmHg

Q: And the “Average Change” value (3 mg/kg P.O., AII 0.05 mcg/kg IV, 60 min post dose)?
A: 12.5 mmHg

Q: And the “Average Change” value (3 mg/kg P.O., AII 0.05 mcg/kg IV, 90 min post dose)?
A: 20 mmHg

Q: What about the “Average Change” value (3 mg/kg P.O., AII 0.05 mcg/kg IV, 120 min post dose) of the same compound?
A: 22.5 mmHg

Q: What about the “Average Change” value (3 mg/kg P.O., AII 0.05 mcg/kg IV, 180 min post dose) of the same compound?
A: 34 mmHg

Q: And the “Average Change” value [5]?
A: 30 mmHg

Q: And the “Average Change” value (3 mg/kg P.O., AII 0.1 mcg/kg IV, 60 min post dose)?
A: 22.5 mmHg

Q: What about the “Average Change” value (3 mg/kg P.O., AII 0.1 mcg/kg IV, 90 min post dose) of the same compound?
A: 25 mmHg

Q: And the “Average Change” value (3 mg/kg P.O., AII 0.1 mcg/kg IV, 120 min post dose)?
A: 17.5 mmHg

Q: And the “Average Change” value (3 mg/kg P.O., AII 0.1 mcg/kg IV, 180 min post dose)?
A: 22.5 mmHg

Q: And the Change [1]?
A: 0 mmHg

Q: What about the Change [2] of the same compound?
A: 0 mmHg

Q: What about the Change [3] of the same compound?
A: 25 mmHg

Q: What about the Change [4] of the same compound?
A: 25 mmHg

Q: What about the Change [5] of the same compound?
A: 30 mmHg
